Patent publication US10785975B2, “Water and feed antimicrobial preservative” (priority 2009, dated 2020)
Where two headings read alike, the source gives them in different places. Blank lines part the entries; values can stand above or below the molecule they belong to.

How the values were obtained:
[1] = test system: Salmonella typhimurium; experiment: Example 1: effect of pH buffering of acetic and propionic acid on antimicrobial activity in water; type: cell-based; details: for MIC at 4 Hr / MIC at 24 HR: Minimum Inhibitory Concentrations, by linear regression over 0.025-0.1% acid solutions, pH 3
Experimental: Propionic and acetic acids were buffered with ammonium hydroxide to pHs ranging from 1 to 7. Acid contents of the buffered solutions were determined by a weight to weight ratio calculation to obtain the same acid content in the test solutions. […] The pHs of the deionized water solutions were recorded and any problems with solubility noted.
(§1) 100 ul of a nutrient broth culture of Salmonella typhimurium was added to each dilution tube. After addition, tubes were vortexed and allowed to stand. At 4 and 24 hours after addition of the inoculum, 100 ul of the solution was plated on Standard Plate agar (triplicate plates). Plates were incubated at 37° C. for 24 hours prior to enumeration. The minimum effective dose of each acid was determined by linear regression.

[2] = test system: Salmonella typhimurium; experiment: Example 3: buffered organic acid mixtures with pelargonic acid in water; type: cell-based
Experimental: (§2) Procedure: Propionic and acetic acids were buffered with ammonium hydroxide to a pH of 3 and combined with pelargonic in the ratios above. Acid content of the buffered solutions was determined by weight to weight ratio calculation (weight of acid/total weight of buffered solution) and adjusted to provide an equal acid value for each treatment. […] The pHs of the deionized water solutions were recorded and any problems with solubility noted.
as §1

[3] = test system: Salmonella typhimurium; experiment: Study 4: pelargonic acid (1-20%) in buffered propionic or acetic acid in water; type: cell-based
Experimental: as §2, with “Propionic” for “Procedure: Propionic”, “listed.” for “above.”
as §1, with “enumeration.” for “enumeration. The minimum effective dose of each acid was determined by linear regression.”

[4] = test system: Salmonella typhimurium; experiment: Study 6: capric acid in acetic or propionic acid against salmonella in poultry feed; type: cell-based; details: Capric/Acetic acids, 24 hours after treatment
Experimental: Commercial poultry feed amended with Salmonella typhimurium was treated with 1 or 3 kg/MT of the solutions listed below. Twenty four hours after treatment, 10 gr of feed was added to 90 ml Butterfield buffer, mixed and then 100 ul of the solution was plated on Standard Plate agar (triplicate plates). Plates were incubated at 37° C. for 24 hours prior to enumeration.

[5] = test system: M. gypseum; details: acids tested independently, cited from earlier work
[6] = Product Conc. 0.025 (% acid solution in water)
[7] = Product Conc. 0.05 (% acid solution in water)
[8] = Product Conc. 0.075 (% acid solution in water)
[9] = Product Conc. 0.1 (% acid solution in water)
[10] = Product Conc. 0.025 (% total acid solution in water), 4 hr
[11] = Product Conc. 0.025 (% total acid solution in water)
[12] = Product Conc. 0.05 (% total acid solution in water), 4 hr
[13] = Product Conc. 0.05 (% total acid solution in water)
[14] = Product Conc. 0.075 (% total acid solution in water), 4 hr
[15] = Product Conc. 0.075 (% total acid solution in water)
[16] = Product Conc. 0.1 (% total acid solution in water), 4 hr
[17] = Product Conc. 0.1 (% total acid solution in water)
[18] = Product Concentration 0.025 (% total acid solution in water)
[19] = Product Concentration 0.05 (% total acid solution in water)

Compound: CCC(=O)O [Propionic pH 3, Propionic acid]
MIC at 4 Hr [1]: 0.149 | MIC at 24 HR [1]: 0.069 | Salmonella at time Interval 4 hr % reduction [1, 6]: 2% | Salmonella at time Interval 4 hr cfu/g [1, 6]: 1467 cfu/g | Salmonella at time Interval 24 hr % reduction [1, 6]: 84% | Salmonella at time Interval 24 hr cfu/g [1, 6]: 190 cfu/g | Salmonella at time Interval 4 hr % reduction [1, 7]: 44% | Salmonella at time Interval 4 hr cfu/g [1, 7]: 847 cfu/g | Salmonella at time Interval 24 hr % reduction [1, 7]: 93% | Salmonella at time Interval 24 hr cfu/g [1, 7]: 83 cfu/g | Salmonella at time Interval 4 hr % reduction [1, 8]: 35% | Salmonella at time Interval 4 hr cfu/g [1, 8]: 973 cfu/g | Salmonella at time Interval 24 hr % reduction [1, 8]: 95% | Salmonella at time Interval 24 hr cfu/g [1, 8]: 60 cfu/g | Salmonella at time Interval 4 hr % reduction [1, 9]: 60% | Salmonella at time Interval 4 hr cfu/g [1, 9]: 603 cfu/g | Salmonella at time Interval 24 hr % reduction [1, 9]: 98% | Salmonella at time Interval 24 hr cfu/g [1, 9]: 27 cfu/g | Salmonella at time Interval 4 hr % reduction [2, 10]: 25% | Salmonella at time Interval 4 hr cfu/g [2, 10]: 1133 cfu/g | Salmonella at time Interval 24 hr % reduction [2, 11]: 95% | Salmonella at time Interval 24 hr cfu/g [2, 11]: 70 cfu/g | Salmonella at time Interval 4 hr % reduction [2, 12]: 42% | Salmonella at time Interval 4 hr cfu/g [2, 12]: 880 cfu/g | Salmonella at time Interval 24 hr % reduction [2, 13]: 99% | Salmonella at time Interval 24 hr cfu/g [2, 13]: 17 cfu/g | Salmonella at time Interval 4 hr % reduction [2, 14]: 25% | Salmonella at time Interval 4 hr cfu/g [2, 14]: 1133 cfu/g | Salmonella at time Interval 24 hr % reduction [2, 15]: 99% | Salmonella at time Interval 24 hr cfu/g [2, 15]: 20 cfu/g | Salmonella at time Interval 4 hr % reduction [2, 16]: 44% | Salmonella at time Interval 4 hr cfu/g [2, 16]: 857 cfu/g | Salmonella at time Interval 24 hr % reduction [2, 17]: 99% | Salmonella at time Interval 24 hr cfu/g [2, 17]: 13 cfu/g | Salmonella at time Interval 4 hr % reduction [3, 18]: 29% | Salmonella at time Interval 4 hr cfu/g [3, 18]: 990 cfu/g | Salmonella at time Interval 24 hr % reduction [3, 18]: 91% | Salmonella at time Interval 24 hr cfu/g [3, 18]: 130 cfu/g | Salmonella at time Interval 4 hr % reduction [3, 19]: 29% | Salmonella at time Interval 4 hr cfu/g [3, 19]: 1000 cfu/g | Salmonella at time Interval 24 hr % reduction [3, 19]: 96% | Salmonella at time Interval 24 hr cfu/g [3, 19]: 50 cfu/g

MIC at 4 HR ([2]; Minimum Inhibitory Concentration of Pelargonic when mixed with acetic or propionic acid (buffered to pH 3), by linear regression, 4 hr): 0.171
Compound: CC(=O)O [Acetic acid]
% Reduction ([4]; 1 kg/ton): 41.3% | cfu/g ([4]; 1 kg/ton): 3367 cfu/g | % Reduction ([4]; 3 kg/ton): 54.6% | cfu/g ([4]; 3 kg/ton): 2600 cfu/g

MIC at 4 Hr [1]: 0.176 | MIC at 24 HR [1]: 0.073
Compound: CC(=O)O [Acetic pH 3, Acetic acid]
Salmonella at time Interval 4 hr % reduction [1, 6]: 27% | Salmonella at time Interval 4 hr cfu/g [1, 6]: 1100 cfu/g | Salmonella at time Interval 24 hr % reduction [1, 6]: 75% | Salmonella at time Interval 24 hr cfu/g [1, 6]: 300 cfu/g | Salmonella at time Interval 4 hr % reduction [1, 7]: 44% | Salmonella at time Interval 4 hr cfu/g [1, 7]: 843 cfu/g | Salmonella at time Interval 24 hr % reduction [1, 7]: 90% | Salmonella at time Interval 24 hr cfu/g [1, 7]: 117 cfu/g | Salmonella at time Interval 4 hr % reduction [1, 8]: 38% | Salmonella at time Interval 4 hr cfu/g [1, 8]: 927 cfu/g | Salmonella at time Interval 24 hr % reduction [1, 8]: 92% | Salmonella at time Interval 24 hr cfu/g [1, 8]: 90 cfu/g | Salmonella at time Interval 4 hr % reduction [1, 9]: 42% | Salmonella at time Interval 4 hr cfu/g [1, 9]: 873 cfu/g | Salmonella at time Interval 24 hr % reduction [1, 9]: 96% | Salmonella at time Interval 24 hr cfu/g [1, 9]: 43 cfu/g | Salmonella at time Interval 4 hr % reduction [2, 10]: 38% | Salmonella at time Interval 4 hr cfu/g [2, 10]: 943 cfu/g | Salmonella at time Interval 24 hr % reduction [2, 11]: 92% | Salmonella at time Interval 24 hr cfu/g [2, 11]: 123 cfu/g | Salmonella at time Interval 4 hr % reduction [2, 12]: 34% | Salmonella at time Interval 4 hr cfu/g [2, 12]: 1007 cfu/g | Salmonella at time Interval 24 hr % reduction [2, 13]: 92% | Salmonella at time Interval 24 hr cfu/g [2, 13]: 120 cfu/g | Salmonella at time Interval 4 hr % reduction [2, 14]: 34% | Salmonella at time Interval 4 hr cfu/g [2, 14]: 1007 cfu/g | Salmonella at time Interval 24 hr % reduction [2, 15]: 95% | Salmonella at time Interval 24 hr cfu/g [2, 15]: 77 cfu/g | Salmonella at time Interval 4 hr % reduction [2, 16]: 36% | Salmonella at time Interval 4 hr cfu/g [2, 16]: 967 cfu/g | Salmonella at time Interval 24 hr % reduction [2, 17]: 95% | Salmonella at time Interval 24 hr cfu/g [2, 17]: 83 cfu/g | Salmonella at time Interval 4 hr % reduction [3, 18]: 29% | Salmonella at time Interval 4 hr cfu/g [3, 18]: 1000 cfu/g | Salmonella at time Interval 24 hr % reduction [3, 18]: 96% | Salmonella at time Interval 24 hr cfu/g [3, 18]: 60 cfu/g | Salmonella at time Interval 4 hr % reduction [3, 19]: 32% | Salmonella at time Interval 4 hr cfu/g [3, 19]: 950 cfu/g | Salmonella at time Interval 24 hr % reduction [3, 19]: 99% | Salmonella at time Interval 24 hr cfu/g [3, 19]: 20 cfu/g

Compound: CCCCCCCCCC(=O)O [capric acid]
minimum inhibitory concentration (MTC) to prevent growth of M. gypseum ([5]; in liquid media): 75 µg/mL | minimum inhibitory concentration (MTC) to prevent growth of M. gypseum ([5]; on solid media): 20 µg/mL
